Data taken from PMC9861162 (Pharmaceuticals, 2022).
Entries after “also recorded” stand apart in the source; their conditions may differ.

Assays:
[1] = dapaconazole PBPK model in dogs (Simcyp); set-up: species or system dog
Experimental: A PBPK model was first developed in dogs using a hybrid PBPK approach employing the in vivo clearance reported in dogs. The input parameters are described in Table 4.
Then, the full PBPK model, which used the method 2 (Rodgers and Rowland [15]) to predict the volume of distribution at steady-state conditions (Vss) was evaluated.
All modeling was conducted using Simcyp modeling software (v. 20, Certara, Princeton, NJ, US). […] All of the input parameters are described in Table 4.
The Simcyp minimal PBPK, which considers all organs other than the intestine and liver as a single compartment, plus a SAC distribution model were selected. […] The Vss was predicted using Rodgers and Rowland’s equations (method 2). A Kp scalar was determined to best describe the observed dog data using a sensitivity analysis approach. The final values of Vsac, kin, and kout were determined from the parameter estimation approach selecting the best values to describe the shape of the observed PK profile. For the elimination model development, the in vivo systemic clearance values reported in dogs were employed in a middle-out approach. […] The PBPK model was evaluated through a visual comparison of observed in vivo plasma concentration–time profiles with the concentrations predicted in dogs, and the PK parameters within observed/predicted ratios between 0.5-fold to 2-fold were considered acceptable.

[2] = set-up: method as in Antunes et al. [14]; details: dog plasma; ref Antunes et al. [14]; cited from earlier work
[3] = set-up: method as in Drugbank; details: PBPK input; ref Drugbank; cited from earlier work
CYP2C9 = CYP2C9 (Homo sapiens, UniProt P11712)
Excerpt: (§1) The Ki input values were estimated from the ratio IC50/2. Since the IC50 experiments were designed considering the substrate concentration equal to Km, the simplification of Ki as IC50/2 was considered for a competitive inhibition reaction.
(§2) The following Equation (4) was considered for the potential DDI evaluation:(4) AUCR=AUCwith inhibitor/AUCwithout inhibitor where AUCR is the area under the curve ratio, AUCwith inhibitor is AUC in the presence of the inhibitor, and AUCwithout inhibitor is AUC in the absence of the inhibitor.

CYP2C8 = biological target: T1, CYP2C8 (Homo sapiens, UniProt P10632)
T1 sequence (P10632 1-490): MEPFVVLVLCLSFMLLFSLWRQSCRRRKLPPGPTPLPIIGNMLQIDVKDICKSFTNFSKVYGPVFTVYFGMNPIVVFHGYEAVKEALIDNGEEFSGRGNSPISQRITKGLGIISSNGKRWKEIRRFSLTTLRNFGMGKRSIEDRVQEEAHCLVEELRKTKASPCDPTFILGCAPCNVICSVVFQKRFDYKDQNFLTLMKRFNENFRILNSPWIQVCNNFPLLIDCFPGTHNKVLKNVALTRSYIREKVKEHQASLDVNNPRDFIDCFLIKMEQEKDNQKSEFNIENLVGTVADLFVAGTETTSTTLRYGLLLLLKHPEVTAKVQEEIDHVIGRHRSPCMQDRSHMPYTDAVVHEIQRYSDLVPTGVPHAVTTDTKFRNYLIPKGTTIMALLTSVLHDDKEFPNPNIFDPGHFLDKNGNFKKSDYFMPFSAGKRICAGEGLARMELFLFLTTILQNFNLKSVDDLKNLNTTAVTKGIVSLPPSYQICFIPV
Excerpt: as §1, §2

CYP2D6 = CYP2D6 (Homo sapiens, UniProt P10635)
Excerpt: as §1, §2

CYP1A2 = biological target: T2, CYP1A2 (Homo sapiens, UniProt P05177); test: clinical DDI prediction, static (IVIVE) and dynamic (PBPK) models, CYP1A2
T2 sequence (P05177 1-516): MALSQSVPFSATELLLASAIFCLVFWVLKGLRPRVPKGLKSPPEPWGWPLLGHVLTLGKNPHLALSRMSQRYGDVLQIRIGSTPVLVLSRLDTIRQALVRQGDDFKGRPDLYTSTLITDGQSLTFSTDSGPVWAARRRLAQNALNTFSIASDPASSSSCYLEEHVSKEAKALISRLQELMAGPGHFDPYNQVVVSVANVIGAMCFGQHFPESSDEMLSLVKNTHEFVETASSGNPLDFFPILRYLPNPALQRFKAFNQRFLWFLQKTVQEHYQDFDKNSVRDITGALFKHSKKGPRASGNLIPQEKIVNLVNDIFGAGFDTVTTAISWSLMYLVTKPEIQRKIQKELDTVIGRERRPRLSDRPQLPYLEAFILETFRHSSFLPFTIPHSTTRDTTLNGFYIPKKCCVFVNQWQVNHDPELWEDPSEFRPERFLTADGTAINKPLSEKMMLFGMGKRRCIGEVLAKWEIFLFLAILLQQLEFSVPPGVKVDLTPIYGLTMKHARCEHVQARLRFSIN
Excerpt: as §1, §2

CYP3A4 = test: clinical DDI prediction, static (IVIVE) and dynamic (PBPK) models, CYP3A4; details: for FDA Classification as CYP inhibitor: higher of static and dynamic AUCR; for R1: reversible inhibition
Excerpt: as §1, §2

tinea cruris = details: topical treatment of tinea cruris; ref [4]; cited from earlier work

Sequence of CYP2C9 (P11712 whole entry): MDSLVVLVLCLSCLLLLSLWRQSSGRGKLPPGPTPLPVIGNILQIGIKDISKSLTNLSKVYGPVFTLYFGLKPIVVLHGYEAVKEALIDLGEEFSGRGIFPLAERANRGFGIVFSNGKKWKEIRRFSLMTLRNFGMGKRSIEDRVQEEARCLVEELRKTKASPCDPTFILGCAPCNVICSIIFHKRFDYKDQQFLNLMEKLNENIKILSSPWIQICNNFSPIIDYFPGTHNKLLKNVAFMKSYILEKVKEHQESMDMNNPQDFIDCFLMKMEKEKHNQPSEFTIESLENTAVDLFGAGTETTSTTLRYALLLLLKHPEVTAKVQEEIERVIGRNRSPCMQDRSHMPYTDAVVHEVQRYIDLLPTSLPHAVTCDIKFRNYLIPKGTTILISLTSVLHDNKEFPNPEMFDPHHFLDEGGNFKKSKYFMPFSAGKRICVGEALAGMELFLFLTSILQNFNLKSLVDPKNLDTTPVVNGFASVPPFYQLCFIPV
Sequence of CYP2D6 (P10635 whole entry): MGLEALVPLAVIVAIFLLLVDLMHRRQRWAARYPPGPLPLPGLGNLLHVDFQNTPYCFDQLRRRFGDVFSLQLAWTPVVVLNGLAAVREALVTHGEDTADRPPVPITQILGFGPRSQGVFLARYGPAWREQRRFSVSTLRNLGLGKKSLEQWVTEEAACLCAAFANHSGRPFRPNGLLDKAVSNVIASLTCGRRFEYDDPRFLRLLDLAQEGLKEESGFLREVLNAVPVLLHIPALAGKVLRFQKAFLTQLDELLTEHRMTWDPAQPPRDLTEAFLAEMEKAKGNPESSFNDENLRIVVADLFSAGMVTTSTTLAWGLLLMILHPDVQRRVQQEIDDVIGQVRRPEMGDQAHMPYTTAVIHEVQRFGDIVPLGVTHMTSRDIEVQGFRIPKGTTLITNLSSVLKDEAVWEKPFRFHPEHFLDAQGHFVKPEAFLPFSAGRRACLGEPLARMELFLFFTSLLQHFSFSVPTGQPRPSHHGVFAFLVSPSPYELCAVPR

FC(F)(F)c1ccc(COC(Cn2ccnc2)c2ccc(Cl)cc2Cl)cc1 (stereo not drawn) [dapaconazole, Dapaconazole]
AUC0-t Observed/predicted ratio ([1]; intravenous 1 mg/kg): 0.83
CL Observed/predicted ratio ([1]; intravenous 1 mg/kg): 1.29
Cmax Observed/predicted ratio ([1]; intravenous 1 mg/kg): 0.92
t1/2 Terminal Observed/predicted ratio ([1]; intravenous 1 mg/kg): 1.08
AUC0-t Observed/predicted ratio ([1]; intravenous 2 mg/kg): 1.27
CL Observed/predicted ratio ([1]; intravenous 2 mg/kg): 1.09
Cmax Observed/predicted ratio ([1]; intravenous 2 mg/kg): 1.78
t1/2 Terminal Observed/predicted ratio ([1]; intravenous 2 mg/kg): 1.29
AUC0-t Observed/predicted ratio ([1]; intravenous 20 mg/kg): 0.65
CL Observed/predicted ratio ([1]; intravenous 20 mg/kg): 1.54
Cmax Observed/predicted ratio ([1]; intravenous 20 mg/kg): 0.58
t1/2 Terminal Observed/predicted ratio ([1]; intravenous 20 mg/kg): 1.04
Unbound fraction [2]: 0.037
log P [3]: 5.63
pKa (monoprotic base) [3]: 6.77
DDI potential from Ki and R1 values (CYP2C9): high potential
R1 (CYP2C9): 4.43
DDI potential from Ki and R1 values (CYP2C8): low potential
R1 (CYP2C8): 1.01
DDI potential from Ki and R1 values (CYP2D6): high potential
R1 (CYP2D6): 1.86
DDI potential from Ki and R1 values (CYP1A2; CYP1A2): moderate potential
R1 (CYP1A2; reversible inhibition, R1=1+(Imax,u/Ki,u), substrate phenacetin): 1.20
DDI potential from Ki and R1 values (CYP3A4; CYP3A): high potential
FDA Classification as CYP inhibitor (CYP3A4; CYP3A4, substrate midazolam): Strong (AUCR ≥ 5: strong inhibitor)
FDA Classification as CYP inhibitor (CYP3A4; CYP3A4, substrate nifedipine): Strong (AUCR ≥ 5: strong inhibitor)
FDA Classification as CYP inhibitor (CYP3A4; CYP3A overall): strong inhibitor; also recorded: moderate to strong inhibition
R1 (CYP3A4; substrate midazolam): 98.26
R1 (CYP3A4; substrate nifedipine): 25.70
efficacy compared with miconazole (tinea cruris): noninferior efficacy
